In patent US20210386738A1, “COMBINATION OF PRMT5 INHIBITORS AND BCL-2 INHIBITORS” (GLAXOSMITHKLINE INTELLECTUAL PROPERTY DEVELOPMENT LIMITED, priority 2018, published 2021):

System: lymphoma cell line DB
Test: Serial dilutions: fixed ABT-199 concentration with Compound A titration, six-day cell proliferation
Type: cell-based
Conditions: for compound A required for gIC100: six days
Experimental: Serial dilutions were performed for the combination to ascertain the change in gIC50, gIC100 and dEC50 when the inhibitors are used together in a PRMT5 inhibitor cell proliferation. A first compound plate was prepared where PRMT5 inhibitor, Compound A, was prepared with a 20-point, two-fold dilution series of compound A from column 1 to 20. A second compound plate was prepared using the BCL-2 inhibitor ABT-199. ABT-199 was titrated in a 16-point 2-fold dilution series from row A to Q. A third plate was then created by added equal volume of 12 ul (ABT-199) from each well in the second plate into the corresponding well in the first plate. The third plate comprised rows from A to Q, each row comprising a fixed concentration of ABT-199. Columns 1-20 comprised varying concentrations of compound A from the 20-point dilution. Plates were incubated for six days at the conditions described above. Lymphoma cell line DB was treated with the solution in each of the wells. Cell growth was measured using CellTiter-Glo (Promega) and luminescence signal was detected with a BioTek Synergy Neo microplate reader. A plate of untreated cells was read at the time of compound/biologic addition to determine the T0 value representing the starting number of cells. Data were fit with a four-parameter equation to generate a concentration response curve for each row using Assay Client software. A comparison was made across each row in the third plate to determine, when keeping a fixed concentration of ABT-199, what concentration of compound A is needed to reach the gIC50, gIC100 or dEC50 respectively and the fold change compared to treating the same cell with compound A alone.
Tables 4a-c show the results of the above serial dilution experiments wherein ‘fold change’ is the difference between the amount of compound A needed to achieve gIC50, gIC100 or dEC50 respectively, compared to the amount of compound A needed to achieve gIC50, gIC100 or dEC50 respectively when compound A is given as a single agent.

O=C(NC[C@H](O)CN1CCc2ccccc2C1)c1ccnc(NC2CCC2)c1 [Compound A]
Fold change over compound A single agent gIC50 (631 nM, most potent of the two agents) (with fixed ABT-199 4 nM): 1.2
Fold change over compound A single agent gIC100 (6489 nM, most potent of the two agents) (with fixed ABT-199 4 nM): 0.9
compound A required for gIC100 (with fixed ABT-199 4 nM): 6989 nM
Fold change over compound A single agent gIC50 (631 nM, most potent of the two agents) (with fixed ABT-199 7 nM): 1.4
Fold change over compound A single agent gIC100 (6489 nM, most potent of the two agents) (with fixed ABT-199 7 nM): 1.0
compound A required for gIC100 (with fixed ABT-199 7 nM): 6362 nM
Fold change over compound A single agent gIC50 (631 nM, most potent of the two agents) (with fixed ABT-199 14 nM): 1.6
Fold change over compound A single agent gIC100 (6489 nM, most potent of the two agents) (with fixed ABT-199 14 nM): 0.9
compound A required for gIC100 (with fixed ABT-199 14 nM): 6896 nM
Fold change over compound A single agent gIC50 (631 nM, most potent of the two agents) (with fixed ABT-199 29 nM): 1.8
Fold change over compound A single agent gIC100 (6489 nM, most potent of the two agents) (with fixed ABT-199 29 nM): 1.2
compound A required for gIC100 (with fixed ABT-199 29 nM): 5525 nM
Fold change over compound A single agent gIC50 (631 nM, most potent of the two agents) (with fixed ABT-199 57 nM): 2.6
Fold change over compound A single agent gIC100 (6489 nM, most potent of the two agents) (with fixed ABT-199 57 nM): 2.2
Fold change over top concentration of compound A or ABT-199 inhibitor used in the assay (since no dEC50 observed with single agents) (with fixed ABT-199 57 nM): 1.2
compound A required for gIC100 (with fixed ABT-199 57 nM): 3004 nM
Fold change over compound A single agent gIC50 (631 nM, most potent of the two agents) (with fixed ABT-199 115 nM): 3.0
Fold change over compound A single agent gIC100 (6489 nM, most potent of the two agents) (with fixed ABT-199 115 nM): 2.4
Fold change over top concentration of compound A or ABT-199 inhibitor used in the assay (since no dEC50 observed with single agents) (with fixed ABT-199 115 nM): 1.4
compound A required for gIC100 (with fixed ABT-199 115 nM): 2716 nM
Fold change over compound A single agent gIC50 (631 nM, most potent of the two agents) (with fixed ABT-199 229 nM): 5.5
Fold change over compound A single agent gIC100 (6489 nM, most potent of the two agents) (with fixed ABT-199 229 nM): 2.5
Fold change over top concentration of compound A or ABT-199 inhibitor used in the assay (since no dEC50 observed with single agents) (with fixed ABT-199 229 nM): 1.4
compound A required for gIC100 (with fixed ABT-199 229 nM): 2624 nM
Fold change over compound A single agent gIC50 (631 nM, most potent of the two agents) (with fixed ABT-199 458 nM): 5.3
Fold change over compound A single agent gIC100 (6489 nM, most potent of the two agents) (with fixed ABT-199 458 nM): 3.1
Fold change over top concentration of compound A or ABT-199 inhibitor used in the assay (since no dEC50 observed with single agents) (with fixed ABT-199 458 nM): 1.7
compound A required for gIC100 (with fixed ABT-199 458 nM): 2118 nM
Fold change over compound A single agent gIC50 (631 nM, most potent of the two agents) (with fixed ABT-199 916 nM): 8.1
Fold change over compound A single agent gIC100 (6489 nM, most potent of the two agents) (with fixed ABT-199 916 nM): 3.3
Fold change over top concentration of compound A or ABT-199 inhibitor used in the assay (since no dEC50 observed with single agents) (with fixed ABT-199 916 nM): 2.6
compound A required for gIC100 (with fixed ABT-199 916 nM): 1994 nM
Fold change over compound A single agent gIC50 (631 nM, most potent of the two agents) (with fixed ABT-199 1833 nM): 8.5
Fold change over compound A single agent gIC100 (6489 nM, most potent of the two agents) (with fixed ABT-199 1833 nM): 4.0
Fold change over top concentration of compound A or ABT-199 inhibitor used in the assay (since no dEC50 observed with single agents) (with fixed ABT-199 1833 nM): 3.1
compound A required for gIC100 (with fixed ABT-199 1833 nM): 1604 nM
Fold change over compound A single agent gIC50 (631 nM, most potent of the two agents) (with fixed ABT-199 3666 nM): 7.8
Fold change over compound A single agent gIC100 (6489 nM, most potent of the two agents) (with fixed ABT-199 3666 nM): 3.7
Fold change over top concentration of compound A or ABT-199 inhibitor used in the assay (since no dEC50 observed with single agents) (with fixed ABT-199 3666 nM): 3.3
compound A required for gIC100 (with fixed ABT-199 3666 nM): 1745 nM
Fold change over compound A single agent gIC50 (631 nM, most potent of the two agents) (with fixed ABT-199 7331 nM): 43
Fold change over compound A single agent gIC100 (6489 nM, most potent of the two agents) (with fixed ABT-199 7331 nM): 3.8
Fold change over top concentration of compound A or ABT-199 inhibitor used in the assay (since no dEC50 observed with single agents) (with fixed ABT-199 7331 nM): 3.2
compound A required for gIC100 (with fixed ABT-199 7331 nM): 1707 nM
